Reference: patent publication US20200164078A1, “APPLICABLE CHEMICAL COMPOSITION COMPRISING AN AGENT CONJUGATED TO A HYDROPHOBIC MOIETY AND A CARRIER” (TECHNISCHE UNIVERSITEIT EINDHOVEN, priority 2017, published 2020)
Entries after “also recorded” stand apart in the source; their conditions may differ.

How the values were obtained:
CC531 cells = details: approximately 24 hour incubation; for Efficacy: MTT; for EC50: global sigmoidal fit of three assays, n=8, ±SD
Experimental: After approximately 24 hour incubation in the cell incubator, 25 μL of freshly prepared MTT solution (5 mg/mL in PBS, filtered through 0.2 μm filter) was added to the wells and incubated for 2 hours. The medium was then completely removed and replaced with 125 μL 0.04 M HCl in isopropanol and incubated for 1 hour. After gently mixing, 100 μl of the isopropanol solution was transferred to a Costar EIA/RIA 96 transparent flat bottom wells plate. The absorbance was measured at 570 nm with 650 nm as reference. Absorbance of MTT was read out on a Tecan Saffire 2 plate reader and Tecan Spark 10M plate reader. Values were normalized to untreated cells. The complete assay was performed three times for CC531 cells. All data sets were used together to fit a global sigmoidal dose response curve with a shared slope and center, giving one EC50 per cell line. A concatenate fit was plotted through the MTT results for visualization. […] Every experiment n=8, ±SD.

[1] = Stability measurements by UV absorption in PBS; details: 200 mg/L, day 0-13
[2] = Release from 10 wt % bifunctional UPy-PEG10k hydrogel into PBS; type: physicochemical
Experimental: The UPy-PEG10k liquid carrier composition was prepared by dissolving the UPy-PEG10k powder in PBS at elevated pH by stirring at 70° C. for 1 h using a magnetic stirrer (e.g. 10 mg in 90 μl PBS pH 11.7 for a 10 wt % hydrogel). Afterwards the viscous solution was cooled to RT with a resulting pH of approximately 9.0. […] The obtained composition is a liquid composition at this pH.
100 μL of the solutions were transferred to Millicell hanging cell culture inserts (PIEP12R48/MCEP24H48) and immediately placed in a 24-well plate with 600 μL PBS per well. Contact with the neutral PBS through the membrane of the insert results in gelation of the liquid carrier, forming the hydrogel. At set time-points the PBS was refreshed and the removed PBS was analyzed for MMC or MPC content. Analysis was performed by measuring UV absorption and converted to concentration via predetermined standard curves. […] […]. Release of MPC can be correlated to the erosion of the hydrogel. The initial goal to couple cholesterol to MMC to slow down the release from the hydrogel is accomplished hereby.

[3] = cited from earlier work

Mitomycin-PEG24-Cholesterol [MPC]
Efficacy (CC531 cells): approximately 100% | EC50 (CC531 cells): 3.8 ± 1.1 µM

CO[C@@]12[C@H](COC(N)=O)C3=C(C(=O)C(C)=C(N)C3=O)N1C[C@@H]1N[C@@H]12 [MMC, Mitomycin C]
Stability (UV absorption spectra) ([1]; pH 6.5, 37° C.): unstable; also recorded: degrades | Stability (UV absorption spectra) ([1]; pH 7.4, 4° C.): stable | Stability (UV absorption spectra) ([1]; pH 7.4, 37° C.): stable | Release (%) ([2]; 0.3 mM in gel, time 0.05 day): 38.93% | Release (%) ([2]; 0.3 mM in gel, time 0.21 day): 69.58% | Release (%) ([2]; 0.3 mM in gel, time 1.00 day): 86.44% | Release (%) ([2]; 3 mM in gel, time 0.06 day): 34.09% | Release (%) ([2]; 3 mM in gel, time 0.17 day): 58.33% | Release (%) ([2]; 3 mM in gel, time 0.38 day): 79.92% | Release (%) ([2]; 3 mM in gel, time 1.00 day): 95.83% | Release (%) ([2]; 3 mM in gel, time 2.00 day): 102.65% | Time of release from the hydrogel ([2]; 10 wt % UPy-PEG10k hydrogel, diffusion kinetics): approximately 24 hours | Efficacy (CC531 cells): approximately 100% | EC50 (CC531 cells): 19.6 ± 3.2 µM

Nc1ccn([C@@H]2O[C@H](CO)[C@@H](O)C2(F)F)c(=O)n1 [Gemcitabine]
Water solubility [3]: 51300 µg/mL

COc1cccc2c1C(=O)c1c(O)c3c(c(O)c1C2=O)C[C@@](O)(C(C)=O)C[C@@H]3O[C@H]1C[C@H](N)[C@H](O)[C@H](C)O1 [Daunorubicin]
Water solubility [3]: 39 µg/mL

COc1cccc2c1C(=O)c1c(O)c3c(c(O)c1C2=O)C[C@@](O)(C(=O)CO)C[C@@H]3O[C@H]1C[C@H](N)[C@H](O)[C@H](C)O1 [Doxorubicin]
Water solubility [3]: 1180 µg/mL

CC(C)CCC[C@@H](C)[C@H]1CC[C@H]2[C@@H]3CC=C4C[C@@H](O)CC[C@]4(C)[C@H]3CC[C@]12C [Cholesterol]
Water solubility [3]: Less than 0.000095 mg/mL)
